Test results: publication PMC8711653, “The Nature of Diamino Linker and Halogen Bonding Define Selectivity of Pyrrolopyrimidine-Based LIMK1 Inhibitors” (Frontiers in Chemistry, 2021)
Read-outs that look alike come from different tables or passages of the source.

Tests used:
LIMK1 [1] = target: T1, LIMK1 (Homo sapiens, UniProt P53667); test: LIMK1 ADP-Glo kinase assay (Promega); type: biochemical; conditions: 0.1 μM compound
T1 construct: purchased Promega
Method: ADP-Glo kinase assay was performed in 96-well plate format using the Promega kinase assay system. LIMK1 (0.1 μg) and compounds (0.1–100 μM) were dissolved in kinase reaction buffer and incubated for 30 min at rt. The reaction was then initiated by the addition of ATP (10 μM, 5 μl) and incubation for 30 min at 30°C. The reaction was then quenched with addition of 25 μl of ADP-Glo reagent. Kinase detection reagent (50 μl) was added and incubated for 30 min prior to luminescence reading on the BMG Labtech PHERAstar FS plate reader. Kinase assay is performed as duplicate.

LIMK1 [2] = target: T1, LIMK1; test: 33P-ATP radiotracer assay, LIMK1 (Reaction Biology Corporation); type: biochemical; conditions: for IC50: 33P transfer from ATP to cofilin, 10 μM 33P-ATP, 1 μM cofilin, triplicate
Method: (§1) To measure the selectivity against LIMK isoforms, the radiotracer assay measuring the transfer of ^33P from ATP to the substrate was used since there was no ADP-Glo™ kinase assay system available for LIMK2 (Table 2).
(§2) The radiotracer assay of LIMK1 and LIMK2 was performed by Reaction Biology Corporation. Compounds were tested in 10-dose IC50 mode with fivefold series dilution starting at 10 μM. Reactions were carried out at 10 μM ^33P-ATP, 1 μM cofilin substrate, and 50 nM LIMK1 (final concentration). Kinase activity is determined by the transfer or radioactive ^33P from ATP to cofilin substrate. Radiotracer assay is performed as triplicate.

LIMK2 [3] = target: T2, LIMK2 (Homo sapiens, UniProt P53671); test: 33P-ATP radiotracer assay, LIMK2 (Reaction Biology Corporation); type: biochemical
T2 construct: purchased Reaction Biology Corporation
Method: as §1, §2

C6 cells = test: Scratch (wound closure) assay, cell migration velocity; type: cell-based; conditions: live imaging 24 h, compared to untreated cell
Method: Cofilin, the substrate for LIMK1, regulates the actin skeleton and thus regulates cell migration ([Bravo-Cordero et al., 2013]). To understand the inhibitory effect of compounds 1 and 22–26 in vitro, scratch assays were performed. The artificial wound was created by “scratching” in the middle of the well with confluent C6 cells in culture. Live imaging was captured for 24 h to measure the distance of cell migration (Figure 3; Supplementary video).
The velocity of cell migration is measured using the C6 cell line in the 24-well plate. Cells were seeded at 100,000 cells/well. After 24 h, cells were washed with warm PBS and treated with the inhibitors. Directly following the treatment, cells were moved into a preheated stage-top incubator maintained at 37°C/5% CO2, using the ZEISS Axio Observer live cell microscope, fitted with an Axiocam 702 mono camera. Cells were imaged once every 10 min using a ×10 objective with phase contrast for a 24-h period. Cell migration was analysed using Fiji ImageJ (NIH) and Chemotaxis Migration Tool (ibidi).

LIMK1 [4] = target: T1, LIMK1; conditions: Figure 1A, known inhibitors, ref Harrison et al., 2009, Boland et al., 2015, Yin et al., Yi et al., 2017; cited from earlier work
LIMK2 [5] = target: T2, LIMK2; conditions: Figure 1A, known inhibitors, ref Harrison et al., 2009, Boland et al., 2015, Yin et al., Yi et al., 2017; cited from earlier work
[6] = Promega ADP-Glo kinase assay, Table 1, read-out: % LIMK1 inhibition at 0.1 μM (dash = no inhibition)
[7] = Promega ADP-Glo kinase assay, Table 1, read-out: % LIMK1 inhibition at 0.1 μM
[8] = Promega ADP-Glo kinase assay, Table 2, read-out: % LIMK1 inhibition at 0.1 μM
[9] = 33P transfer from ATP to cofilin, 10 μM 33P-ATP, 1 μM cofilin, triplicate
[10] = ADP-Glo assay, read-out: LIMK1 inhibitory activity at 0.1 μM
[11] = 33P radiotracer assay, top concentration 10 μM

T1 sequence (P53667 whole entry): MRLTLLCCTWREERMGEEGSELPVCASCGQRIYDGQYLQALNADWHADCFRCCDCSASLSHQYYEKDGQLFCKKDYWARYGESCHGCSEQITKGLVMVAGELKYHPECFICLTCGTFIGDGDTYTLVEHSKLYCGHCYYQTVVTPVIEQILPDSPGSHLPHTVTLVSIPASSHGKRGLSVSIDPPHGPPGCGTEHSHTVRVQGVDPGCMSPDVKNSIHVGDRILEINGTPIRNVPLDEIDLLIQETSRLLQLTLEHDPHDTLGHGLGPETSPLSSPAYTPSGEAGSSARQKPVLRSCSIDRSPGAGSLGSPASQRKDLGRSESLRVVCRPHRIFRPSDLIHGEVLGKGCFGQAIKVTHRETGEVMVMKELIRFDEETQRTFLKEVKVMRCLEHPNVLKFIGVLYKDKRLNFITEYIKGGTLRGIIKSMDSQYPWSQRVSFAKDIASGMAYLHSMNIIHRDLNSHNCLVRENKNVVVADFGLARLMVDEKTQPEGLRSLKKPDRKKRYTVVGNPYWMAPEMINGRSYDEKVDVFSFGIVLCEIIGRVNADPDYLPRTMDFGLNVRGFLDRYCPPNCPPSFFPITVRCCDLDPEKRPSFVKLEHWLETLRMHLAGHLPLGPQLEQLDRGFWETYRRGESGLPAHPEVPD
T2 sequence (P53671 whole entry): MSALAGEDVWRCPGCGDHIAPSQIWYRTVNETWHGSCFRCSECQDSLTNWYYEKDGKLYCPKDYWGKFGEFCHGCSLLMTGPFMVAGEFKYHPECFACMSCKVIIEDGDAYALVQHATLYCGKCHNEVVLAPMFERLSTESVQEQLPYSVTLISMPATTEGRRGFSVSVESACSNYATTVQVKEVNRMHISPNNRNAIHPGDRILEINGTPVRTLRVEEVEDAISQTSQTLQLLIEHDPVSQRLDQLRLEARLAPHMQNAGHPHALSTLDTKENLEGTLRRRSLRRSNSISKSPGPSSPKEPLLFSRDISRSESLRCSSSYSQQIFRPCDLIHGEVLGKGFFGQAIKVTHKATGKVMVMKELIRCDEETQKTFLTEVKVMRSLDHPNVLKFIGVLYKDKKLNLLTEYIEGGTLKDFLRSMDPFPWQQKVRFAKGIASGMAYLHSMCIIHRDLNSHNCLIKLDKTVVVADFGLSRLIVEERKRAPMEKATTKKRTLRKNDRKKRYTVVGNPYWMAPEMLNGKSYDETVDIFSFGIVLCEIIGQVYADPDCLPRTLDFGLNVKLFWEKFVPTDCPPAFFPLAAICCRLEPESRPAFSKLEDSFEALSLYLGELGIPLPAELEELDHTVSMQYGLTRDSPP

Compound: Cc1c[nH]c2ncnc(NCCNC(=NC#N)Nc3cccc(Cl)c3)c12 [Compound 8, 1-(3-Chlorophenyl)-2-cyano-3-(2-((5-methyl-7H-pyrrolo[2,3-d]pyrimidin-4-yl)amino)ethyl)guanidine]
- LIMK1 inhibitory activity at 0.1 μM (in words) (LIMK1 [1]; ADP-Glo assay): completely abolished inhibitory activity
- inhibition at 0.1 µM (LIMK1 [1]; [6]): < 0%
- melting point: 87 to 88 °C

Compound: Cc1c[nH]c2ncnc(NCCNC(=NC#N)Nc3cccc(I)c3)c12 [Compound 10, 2-Cyano-1-(3-iodophenyl)-3-(2-((5-methyl-7H-pyrrolo[2,3-d]pyrimidin-4-yl)amino)ethyl)guanidine]
- inhibition at 0.1 µM (LIMK1 [1]; [7]): 17.8 ± 7.1%
- melting point: 88 to 89 °C

Compound: Cc1c[nH]c2ncnc(NCCNC(=NC#N)Nc3cccc(Br)c3)c12 [Compound 9, 1-(3-Bromophenyl)-2-cyano-3-(2-((5-methyl-7H-pyrrolo[2,3-d]pyrimidin-4-yl)amino)ethyl)guanidine]
- inhibition at 0.1 µM (LIMK1 [1]; [7]): 29.4 ± 10.3%
- melting point: 86 to 88 °C

Compound: Cc1c[nH]c2ncnc(NCCCCNC(=NC#N)Nc3cccc(Cl)c3)c12 [Compound 14, 1-(3-Chlorophenyl)-2-cyano-3-(4-((5-methyl-7H-pyrrolo[2,3-d]pyrimidin-4-yl)amino)butyl)guanidine]
- LIMK1 inhibitory activity at 0.1 μM (in words) (LIMK1 [1]; ADP-Glo assay): completely abolished inhibitory activity
- inhibition at 0.1 µM (LIMK1 [1]; [6]): < 0%
- melting point: 90 to 91 °C

Compound: Cc1c[nH]c2ncnc(N[C@@H]3CCCC[C@H]3NC(=NC#N)Nc3cccc(Br)c3)c12 [Compound 23, 1-(3-Bromophenyl)-2-cyano-3-((1R,2R)-2-((5-methyl-7H-pyrrolo[2,3-d]pyrimidin-4-yl)amino)cyclohexyl)guanidine]
- inhibition at 0.1 µM (LIMK1 [1]; [8]): 96.7 ± 0.1%
- IC50 (LIMK1 [2]): 2.83 µM
- IC50 (LIMK2 [3]; [9]): 2.65 µM
- melting point: 127 to 128 °C

Compound: Cc1c[nH]c2ncnc(N[C@@H]3CCCC[C@H]3NC(=NC#N)Nc3cccc(I)c3)c12 [Compound 24, 2-Cyano-1-(3-iodophenyl)-3-((1R,2R)-2-((5-methyl-7H-pyrrolo[2,3-d]pyrimidin-4-yl)amino)cyclohexyl)guanidine]
- inhibition at 0.1 µM (LIMK1 [1]; [8]): 93.2 ± 1.2%
- IC50 (LIMK1 [2]): 5.08 µM
- IC50 (LIMK2 [3]; [9]): 3.38 µM
- melting point: 128 to 129 °C

Compound: Cc1c[nH]c2ncnc(NCCCCNC(=NC#N)Nc3cccc(I)c3)c12 [Compound 16, 2-Cyano-1-(3-iodophenyl)-3-(4-((5-methyl-7H-pyrrolo[2,3-d]pyrimidin-4-yl)amino)butyl)guanidine]
- inhibition at 0.1 µM (LIMK1 [1]; [7]): 41 ± 2.5%
- melting point: 90 to 91 °C

Compound: Cc1c[nH]c2ncnc(N[C@H]3CC[C@H](NC(=NC#N)Nc4cccc(Br)c4)CC3)c12 [Compound 18, 1-(3-Bromophenyl)-2-cyano-3-((1r,4r)-4-((5-methyl-7H-pyrrolo[2,3-d]pyrimidin-4-yl)amino)cyclohexyl)guanidine]
- inhibition at 0.1 µM (LIMK1 [1]; [10]): 69%
- inhibition at 0.1 µM (LIMK1 [1]; [7]): 69.2 ± 1.7%
- melting point: 127 to 128 °C

Compound: Cc1c[nH]c2ncnc(N[C@H]3CC[C@H](NC(=NC#N)Nc4cccc(I)c4)CC3)c12 [Compound 19, 2-Cyano-1-(3-iodophenyl)-3-((1r,4r)-4-((5-methyl-7H-pyrrolo[2,3-d]pyrimidin-4-yl)amino)cyclohexyl)guanidine]
- inhibition at 0.1 µM (LIMK1 [1]; [7]): 66.6 ± 8.8%
- melting point: 129 to 130 °C

Compound: Cc1c[nH]c2ncnc(N3CCN(/C(=N/C#N)Nc4cccc(Br)c4)[C@@H](C)C3)c12 [Compound 1, reference compound]
- inhibition at 0.1 µM (LIMK1 [1]; [7]): 94.3 ± 0.2%
- IC50 (LIMK1 [2]): 0.00028 ± 1e-05 µM
- IC50 (LIMK2 [3]; [9]): 0.00086 ± 5e-05 µM
- cell migration velocity (C6 cells): reduced the cell velocity by twofold

Compound: Cc1c[nH]c2ncnc(NCCCCNC(=NC#N)Nc3cccc(Br)c3)c12 [Compound 15, 1-(3-Bromophenyl)-2-cyano-3-(4-((5-methyl-7H-pyrrolo[2,3-d]pyrimidin-4-yl)amino)butyl)guanidine]
- inhibition at 0.1 µM (LIMK1 [1]; [10]): 47%
- inhibition at 0.1 µM (LIMK1 [1]; [7]): 47.1 ± 1.6%
- melting point: 97 to 98 °C

Compound: Cc1c[nH]c2ncnc(N[C@H]3CCCC[C@@H]3NC(=NC#N)Nc3cccc(I)c3)c12 [Compound 26, 2-Cyano-1-(3-iodophenyl)-3-((1S,2S)-2-((5-methyl-7H-pyrrolo[2,3-d]pyrimidin-4-yl)amino)cyclohexyl)guanidine]
- inhibition at 0.1 µM (LIMK1 [1]; [8]): 94.9 ± 0.8%
- IC50 (LIMK1 [2]): 8.36 µM
- inhibition of LIMK2 (in words) (LIMK2 [3]; 33P radiotracer assay): no significant inhibition of LIMK2
- IC50 (LIMK2 [3]; [11]): > 10 µM
- melting point: 128 to 129 °C

Compound: Cc1c[nH]c2ncnc(NCCCNC(=NC#N)Nc3cccc(I)c3)c12 [Compound 13, 2-Cyano-1-(3-iodophenyl)-3-(3-((5-methyl-7H-pyrrolo[2,3-d]pyrimidin-4-yl)amino)propyl)guanidine]
- inhibition at 0.1 µM (LIMK1 [1]; [7]): 17.8 ± 7.1%
- melting point: 91 to 93 °C

Compound: Cc1c[nH]c2ncnc(N3CCN(C(=NC#N)Nc4cccc(I)c4)[C@@H](C)C3)c12 [Compound 22, (S)-N′-Cyano-N-(3-iodophenyl)-2-methyl-4-(5-methyl-7H-pyrrolo[2,3-d]pyrimidin-4-yl)piperazine-1-carboximidamide]
- inhibition at 0.1 µM (LIMK1 [1]; [8]): 95.5 ± 0.4%
- IC50 (LIMK1 [2]): 0.00013 ± 1e-05 µM
- IC50 (LIMK2 [3]; [9]): 0.00047 ± 1e-05 µM
- cell migration velocity (C6 cells): lowered the migration even further
- melting point: 130 to 131 °C

Compound: Cc1c[nH]c2ncnc(NCCCNC(=NC#N)Nc3cccc(Cl)c3)c12 [Compound 11, 1-(3-Chlorophenyl)-2-cyano-3-(3-((5-methyl-7H-pyrrolo[2,3-d]pyrimidin-4-yl)amino)propyl)guanidine]
- inhibition at 0.1 µM (LIMK1 [1]; [7]): 15 ± 10.7%
- melting point: 88 to 90 °C

Compound: Cc1c[nH]c2ncnc(N[C@H]3CCCC[C@@H]3NC(=NC#N)Nc3cccc(Br)c3)c12 [Compound 25, 1-(3-Bromophenyl)-2-cyano-3-((1S,2S)-2-((5-methyl-7H-pyrrolo[2,3-d]pyrimidin-4-yl)amino)cyclohexyl)guanidine]
- inhibition at 0.1 µM (LIMK1 [1]; [8]): 96 ± 0.5%
- inhibition at 10 µM (LIMK1 [2]; 10 μM compound, 33P radiotracer assay): 47%
- inhibition of LIMK2 (in words) (LIMK2 [3]; 33P radiotracer assay): no significant inhibition of LIMK2
- IC50 (LIMK2 [3]; [11]): > 10 µM
- melting point: 127 to 128 °C

Compound: Cc1c[nH]c2ncnc(N[C@H]3CC[C@H](NC(=NC#N)Nc4cccc(Cl)c4)CC3)c12 [Compound 17, 1-(3-Chlorophenyl)-2-cyano-3-((1r,4r)-4-((5-methyl-7H-pyrrolo[2,3-d]pyrimidin-4-yl)amino)cyclohexyl)guanidine]
- inhibition at 0.1 µM (LIMK1 [1]; [10]): 42%
- inhibition at 0.1 µM (LIMK1 [1]; [7]): 41.7 ± 0.1%
- melting point: 120 to 122 °C

Compound: CN(C)C(=O)Oc1cccc(NC(=O)C2(CN)CCN(c3ncnc4[nH]cc(Cl)c34)CC2)c1 [Compound 4]
- IC50 (LIMK1 [4]): 0.024 µM
- IC50 (LIMK2 [5]): 0.0016 µM

Compound: Cc1c[nH]c2ncnc(NCCCNC(=NC#N)Nc3cccc(Br)c3)c12 [Compound 12, 1-(3-Bromophenyl)-2-cyano-3-(3-((5-methyl-7H-pyrrolo[2,3-d]pyrimidin-4-yl)amino)propyl)guanidine]
- LIMK1 inhibitory activity at 0.1 μM (in words) (LIMK1 [1]; ADP-Glo assay): abolished the inhibitory activity
- inhibition at 0.1 µM (LIMK1 [1]; [6]): < 0%
- melting point: 88 to 89 °C
